Assay results from paper PMC7464911, “Isolation of Antidiabetic Withanolides from Withania coagulans Dunal and Their In Vitro and In Silico Validation” (Biology, 2020).
“Also recorded” adds a separate entry of the source. Read-outs that look alike come from different tables or passages of the source.

How the values were obtained:
[1] = tested on: AGE formation (bovine serum albumin, methylglyoxal); test: In vitro antiglycation assay (BSA-methylglyoxal, AGE fluorescence); assay type: biochemical
Protocol: Methylglyoxal (14 mM), sodium azide (30 mM) in 0.1 M phosphate buffer, bovine serum albumin (10 mg/mL), and various concentrations of the compounds (prepared in 10% DMSO) were incubated under sterile conditions at 37 °C for 9 days. […] Standard rutin was used as a positive control and percent inhibition of AGE formation in the test sample versus control was calculated by using the following relation: % Inhibition = ⦋1−Fluorescence of test sample/Fluorescence of the control⦌×100

α-glucosidase [2] = molecular target: T1, α-glucosidase (Saccharomyces cerevisiae, UniProt P53341); conditions: for α-Glucosidase Inhibition IC50 (µM) ± (SEM): pH 6.8, 37 °C, PNP-G 0.7 mM, mean ± SEM, triplicate
Protocol: (§1) α-Glucosidase inhibitory potential of test compounds was assayed by using 0.1 M phosphate buffer (pH 6.8) at 37 °C. The enzyme (0.2 U/mL) in phosphate buffer was incubated with selected concentrations of test compounds at 37 °C for 15 min. The substrate, p-nitrophenyl-α-D-glucopyranoside (PNP-G) (0.7 mM) was added in each well of 96-well plate and change in absorbance was monitored at 400 nm for 30 min. […] The increase in absorption due to the hydrolysis of PNP-G by α-glucosidase was recorded continuously with the spectrophotometer (Spectra Max, MD, USA.) and percent inhibition was calculated by using the following formula: % Inhibition = 100−⦋OD of test sample/OD of the control×100⦌
(§2) The experiments were performed by using 96-well microplate reader (SpectraMax M2, Molecular Devices, CA, USA) and the results were analyzed by SoftMaxPro 4.8 and MS-Excel. The experiments were repeated in triplicate, and results were presented as means ± SEM. IC50 values were determined by using EZ-FIT, Enzyme kinetics software by Perrella Scientific, Inc., Amherst, MA, USA.

α-glucosidase [3] = molecular target: T1, α-glucosidase; test: biochemical
Protocol: as §1, §2

[4] = tested on: Sprague-Dawley normoglycemic rat model; parameters: method as in PMID 24566854; conditions: cited from earlier work

T1 sequence (P53341 whole entry): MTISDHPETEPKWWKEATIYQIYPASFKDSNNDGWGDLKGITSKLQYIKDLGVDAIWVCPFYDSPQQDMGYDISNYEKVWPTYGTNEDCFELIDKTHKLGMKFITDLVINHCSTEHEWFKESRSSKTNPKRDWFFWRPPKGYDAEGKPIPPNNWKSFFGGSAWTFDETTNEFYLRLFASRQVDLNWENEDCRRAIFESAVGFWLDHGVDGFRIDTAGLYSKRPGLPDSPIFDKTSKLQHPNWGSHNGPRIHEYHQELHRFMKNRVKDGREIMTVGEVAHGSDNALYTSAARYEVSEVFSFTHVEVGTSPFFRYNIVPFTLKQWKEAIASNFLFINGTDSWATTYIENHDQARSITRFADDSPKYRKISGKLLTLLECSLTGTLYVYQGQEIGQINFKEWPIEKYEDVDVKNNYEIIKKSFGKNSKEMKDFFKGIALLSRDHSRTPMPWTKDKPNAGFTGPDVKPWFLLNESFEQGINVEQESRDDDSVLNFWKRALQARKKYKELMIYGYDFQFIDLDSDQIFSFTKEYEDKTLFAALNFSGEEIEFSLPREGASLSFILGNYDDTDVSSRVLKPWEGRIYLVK

Molecule	Antiglycation IC50 (µM) ± (SEM) ([1]; 37 °C, 9 days, mean ± SEM)	α-glucosidase inhibitory activity (in words) (α-glucosidase [2])	α-Glucosidase Inhibition IC50 (µM) ± (SEM) (α-glucosidase [2])	IC50 (α-glucosidase [3])	other results
CC1=C(C)C(=O)O[C@@H]([C@@]2(C)O[C@@]34CC[C@@H]2[C@@]3(C)CC[C@H]2[C@H]4CC=C3C=CCC(=O)[C@@]32C)C1 [Compound 3, coagulin E]	Inactive	did not possess α-glucosidase inhibitory activity	Inactive	–	–
CC1=C(COC2OC(CO)C(O)C(O)C2O)C(=O)OC(C2(C)OC34CCC2C3(C)CCC2C4CC=C3CC(O)CC(=O)C32C)C1 (stereo not drawn) [Compound 1, 3β-Hydroxy-14R,20R-epoxy-1-oxowitha-5,24-dienolide-27-O-β-D glucopyranoside]	–	did not possess α-glucosidase inhibitory activity; also recorded: inactive	Inactive	–	Antiglycation IC50 (µM) ± (SEM) [1]: Inactive
C[C@@H]1O[C@@H](OC[C@H]2O[C@@H](Oc3c(-c4ccc(O)c(O)c4)oc4cc(O)cc(O)c4c3=O)[C@H](O)[C@@H](O)[C@@H]2O)[C@H](O)[C@H](O)[C@H]1O [Rutin, rutin, reference compound]	–	–	–	–	IC50 ([1]; 37 °C, 9 days, mean ± SEM): 288.9 ± 1.84 µM
CC1=C(CO)C(=O)O[C@@H]([C@@](C)(O)[C@H]2CC[C@@]3(O)[C@@H]4CC=C5C=CCC(=O)[C@]5(C)[C@H]4CC[C@]23C)C1 [Compound 5, 27-hydroxywithanolide I]	Inactive	–	–	66.7 ± 3.6 µM	–
CC1=C(C)C(=O)O[C@@H]([C@](C)(O)[C@]2(O)CC[C@@]3(O)[C@@H]4C[C@H]5O[C@]56[C@@H](O)C=CC(=O)[C@]6(C)[C@H]4CC[C@]23C)C1 [4β-hydroxywithanolide E]	–	–	–	–	anti-inflammatory activity [4]: potent; antihyperglycemic activity [4]: potent
CC1=C(CO)C(=O)O[C@@H]([C@@](C)(O)[C@@]2(O)CC[C@@]3(O)[C@@H]4CC=C5C=CCC(=O)[C@]5(C)[C@H]4CC[C@]23C)C1 [Compound 6, ajugin E]	–	did not possess α-glucosidase inhibitory activity	Inactive	–	Antiglycation IC50 (µM) ± (SEM) [1]: Inactive
CC1=C(C)C(=O)O[C@@H]([C@@](C)(O)[C@@]2(O)CC[C@@]3(O)[C@@H]4CCC5=CC=CC(=O)[C@]5(C)[C@H]4CC[C@]23C)C1 [Compound 4, withaperuvin C]	Inactive	–	–	407 ± 4.5 µM	–
17β-hydroxywithanolide K	–	–	–	–	anti-inflammatory activity [4]: potent; antihyperglycemic activity [4]: potent
CC1=C(C)C(=O)O[C@@H]([C@@](C)(O)[C@@]2(O)CC[C@@]3(O)[C@@H]4CC=C5CC=CC(=O)[C@]5(C)[C@H]4CC[C@]23C)C1 [Compound 2, withanolid J]	Inactive	–	–	683 ± 0.94 µM	–
